Assay results taken from patent US20250109127A1, “METHODS OF USE OF PHENOXYPROPYLAMINE COMPOUNDS TO TREAT DEPRESSION” (Minerva Neurosciences, Inc., priority 2013, published 2025).
Values joined by “and” are separate entries in the source; they are usually repeats but may differ in a detail not shown here. Equal entries are not always repeated. Structures can show the parent of a compound that is named as a salt.

Test system: HVA release in the rat prefrontal cortex
Assay: Microdialysis: HVA release in prefrontal cortex after I.P. administration
Format: in vivo
Details: for HVA release (% of basal levels) measured in dialysates: individual animals, hydrochloride, 3 mg/kg; for HVA release (% of basal levels) measured in dialysates, MEAN / HVA (% of respective basal) MEAN: n = 8; for HVA (% of respective basal) MEAN: SON-117 group 0.1 mg/kg I.P.
Protocol: The aim of the study was to evaluate, using microdialysis, the effects of an intraperitoneal (I.P.) administration in rats of three different doses of SON-117 on dopamine and its metabolites, serotonin and its metabolite (5-HIAA), and norepinephrine levels in prefrontal cortex.
Thirty-two adult male Wistar rats were used for the whole study (4 groups of eight animals planned for the study, Table 1).
Surgery was performed on rats weighing about 300 g at the beginning of the experiments. Rats were anaesthetized with Ketamine (50 mg/kg) & Xylazine (15 mg/kg) by intramuscular administration. The animals were placed in a stereotaxic apparatus in the flat-skull position at a constant setting of −3.3 mm between ear bars and the incisor bar. The animals were treated with a local anesthesic (xylocaine 1%, Astra Zeneca) and an analgesic (Temgesic, from Schering Plough, 0.05 mg/kg, s.c.). A rostrocaudal midline incision was made with a lancet to expose the dorsal skull surface. The “stereotaxic zero” was defined by the Bregma in accordance with Paxinos and Watson's atlas (1986). A hole was drilled in the skull with a drill and the meninges were pierced with a sterile needle to implant a CMA12 guide cannula which later received the dialysis probe.
Coordinates used for implanting guide cannula in prefrontal cortex from Bregma were anteroposterior 3.7 mm, mediolateral 0.8 mm, and dorsoventral −2 mm (top of the probe was at −5 mm). The guide cannula was fixed to the skull with two stainless steel screws (1.88 mm outside diameter) anchored. An application of dental cement was added. A plastic collar allowed each animal to be tethered to a Swivel assembly of the CMA 120 awake animal system. Following surgery, rats were kept in individual cages and allowed to recover for a minimum of 3-5 days before the experimentation. The rats were handled and put in plastic bowl for 10 min at least every day to habituate the animals to their new environment for the dialysis. An I.P. administration with saline was also performed every day.
Dialysis probes (CMA12/3 mm, membrane, 20 kD cut-off, Carnegie Medicine, Stockholm, Sweden), were carefully washed before inserting into the guide cannula. The wash was performed with the artificial cerebrospinal fluid (aCSF) medium (NaCl 147 mM, KCl 2.7 mM, CaCl2 1.2 mM, MgCl2 0.85 mM) at room temperature. The dialysis system was then equilibrated at 20° C. at a perfusion rate of 1 μl/min with a Carnegie pump (CMA100). All catheters (FEP tubing, internal volume of 1.2 μl/10 cm, and tubing adaptors) used for microdialysis were treated in the same conditions.
The probes duly prepared were inserted into the guide cannula and the CMA120 Swivel assembly secured to the animal using a plastic collar. Flow through the dialysis probe with aCSF was maintained at a rate of 1 μl/min during the whole experimentation. The first four fractions (corresponding to 2 hours) were discarded to avoid the effects of parenchymal disturbance and to ensure that an approximate steady-state level was reached. Fractions were then collected over a period of 8.5 h during which time the animals remained quiet. The dialysates were automatically collected with an autosampler (microfraction collector CMA 140, Carnegie Medicin) and stored at −80° C. until analysis. […] Perfusion was then maintained for 7 hours with aCSF. The dialysates (30 μl) were collected into 300 μl vials, transferred into dry ice and then kept frozen (−80° C.) until analysis. Frozen samples were shipped to a partner for analysis. At the end of the microdialysis study, a PBS with colored ink was perfused through the probe in order to visualize the dialyzed area.
Catecholamine assay: Concentrations of dopamine, DOPAC, HVA, 5-HIAA, 5-HT, and norepinephrin were determined for each sample by HPLC coupled with electrochemical detection.

[1] = SON-117 3 mg/kg IP, T1 h 30-T2 h
[2] = SON-117 3 mg/kg IP, T1 h-T1 h 30
[3] = SON-117 3 mg/kg IP, T2 h 30-T3 h
[4] = SON-117 3 mg/kg IP, T2 h-T2 h 30
[5] = SON-117 3 mg/kg IP, T3 h 30-T4 h
[6] = SON-117 3 mg/kg IP, T3 h-T3 h 30
[7] = SON-117 3 mg/kg IP, T4 h 30-T5 h
[8] = SON-117 3 mg/kg IP, T4 h-T4 h 30
[9] = SON-117 3 mg/kg IP, T5 h 30-T6 h
[10] = SON-117 3 mg/kg IP, T5 h-T5 h 30
[11] = SON-117 3 mg/kg IP, T6 h 30-T7 h
[12] = SON-117 3 mg/kg IP, T6 h-T6 h 30

**Q.** What does the source list for `Cc1nnc(-c2cc3c(OC[C@@H](O)CN4CCC(c5ccc(Cl)c(Cl)c5)CC4)cccc3o2)o1` [SON-117, (S)-1-(4-(3,4-dichlorophenyl)piperidino)-3-(2-(5-methyl-1,3,4-oxadiazol-2-yl)benzo(b)furan-4-yloxy)-2-propanol hydrochloride]?
**A.** HVA release (% of basal levels) measured in dialysates (SON-117 3 mg/kg IP, T30-T1 h): 87.52 % of basal levels and 80.65 % of basal levels and 76.40 % of basal levels and 105.83 % of basal levels and 105.61 % of basal levels and 95.14 % of basal levels and 127.36 % of basal levels and 107.87 % of basal levels; HVA release (% of basal levels) measured in dialysates, MEAN [1]: 106.02 % of basal levels; HVA release (% of basal levels) measured in dialysates [1]: 84.71 % of basal levels and 105.56 % of basal levels and 94.73 % of basal levels and 137.50 % of basal levels and 83.65 % of basal levels and 91.30 % of basal levels and 115.23 % of basal levels and 135.51 % of basal levels; HVA release (% of basal levels) measured in dialysates, MEAN [2]: 103.62 % of basal levels; HVA release (% of basal levels) measured in dialysates [2]: 91.12 % of basal levels and 84.36 % of basal levels and 104.08 % of basal levels and 126.08 % of basal levels and 106.58 % of basal levels and 89.86 % of basal levels and 137.31 % of basal levels and 89.55 % of basal levels; HVA release (% of basal levels) measured in dialysates, MEAN [3]: 102.12 % of basal levels; HVA release (% of basal levels) measured in dialysates [3]: 105.21 % of basal levels and 84.02 % of basal levels and 95.14 % of basal levels and 119.75 % of basal levels and 76.92 % of basal levels and 96.18 % of basal levels and 146.40 % of basal levels and 93.34 % of basal levels; HVA release (% of basal levels) measured in dialysates, MEAN [4]: 98.10 % of basal levels; HVA release (% of basal levels) measured in dialysates [4]: 100.40 % of basal levels and 90.71 % of basal levels and 80.00 % of basal levels and 109.73 % of basal levels and 85.44 % of basal levels and 89.46 % of basal levels and 133.10 % of basal levels and 95.93 % of basal levels; HVA release (% of basal levels) measured in dialysates, MEAN [5]: 98.25 % of basal levels; HVA release (% of basal levels) measured in dialysates [5]: 101.22 % of basal levels and 90.35 % of basal levels and 83.39 % of basal levels and 123.68 % of basal levels and 80.06 % of basal levels and 94.85 % of basal levels and 114.56 % of basal levels and 97.90 % of basal levels; HVA release (% of basal levels) measured in dialysates, MEAN [6]: 105.01 % of basal levels; HVA release (% of basal levels) measured in dialysates [6]: 99.13 % of basal levels and 88.16 % of basal levels and 98.47 % of basal levels and 148.68 % of basal levels and 75.12 % of basal levels and 89.56 % of basal levels and 118.49 % of basal levels and 122.51 % of basal levels; HVA release (% of basal levels) measured in dialysates, MEAN [7]: 92.26 % of basal levels; HVA release (% of basal levels) measured in dialysates [7]: 94.88 % of basal levels and 58.87 % of basal levels and 92.33 % of basal levels and 106.33 % of basal levels and 75.16 % of basal levels and 112.83 % of basal levels and 123.56 % of basal levels and 74.10 % of basal levels; HVA release (% of basal levels) measured in dialysates, MEAN [8]: 99.19 % of basal levels; HVA release (% of basal levels) measured in dialysates [8]: 97.33 % of basal levels and 77.20 % of basal levels and 84.63 % of basal levels and 137.16 % of basal levels and 71.70 % of basal levels and 91.93 % of basal levels and 127.61 % of basal levels and 105.99 % of basal levels; HVA release (% of basal levels) measured in dialysates, MEAN [9]: 87.32 % of basal levels; HVA release (% of basal levels) measured in dialysates [9]: 93.31 % of basal levels and 31.10 % of basal levels and 89.25 % of basal levels and 99.64 % of basal levels and 66.49 % of basal levels and 109.12 % of basal levels and 117.65 % of basal levels and 101.69 % of basal levels; HVA release (% of basal levels) measured in dialysates, MEAN [10]: 101.76 % of basal levels; HVA release (% of basal levels) measured in dialysates [10]: 93.67 % of basal levels and 56.56 % of basal levels and 102.66 % of basal levels and 106.92 % of basal levels and 69.24 % of basal levels and 112.81 % of basal levels and 133.42 % of basal levels and 138.83 % of basal levels; HVA release (% of basal levels) measured in dialysates, MEAN [11]: 96.24 % of basal levels; HVA release (% of basal levels) measured in dialysates [11]: 84.70 % of basal levels and 71.14 % of basal levels and 87.80 % of basal levels and 117.29 % of basal levels and 74.11 % of basal levels; HVA release (% of basal levels) measured in dialysates, MEAN [12]: 88.31 % of basal levels; HVA release (% of basal levels) measured in dialysates [12]: 71.80 % of basal levels and 62.19 % of basal levels and 96.42 % of basal levels and 114.78 % of basal levels and 75.15 % of basal levels and 95.54 % of basal levels and 102.27 % of basal levels; HVA release (% of basal levels) measured in dialysates, MEAN (SON-117 3 mg/kg IP, T-30 min-T0 (pre-administration)): 97.66 % of basal levels; HVA release (% of basal levels) measured in dialysates, MEAN (SON-117 3 mg/kg IP, T-1 h 30-T-1 h (pre-administration)): 99.26 % of basal levels; HVA release (% of basal levels) measured in dialysates, MEAN (SON-117 3 mg/kg IP, T-1 h-T-30 min (pre-administration)): 103.08 % of basal levels; HVA concentration in prefrontal cortex, significant slight increase (SON-117 3 mg/kg IP, at 3.5 h): 114%; HVA, difference to the citalopram group (two-way ANOVA) (SON-117 at the three doses tested, in function of time): no significant differences; HVA (% of respective basal) MEAN (T0-T30 min): 101.53 % of respective basal; HVA (% of respective basal) MEAN (T30-T1 h): 118.07 % of respective basal; HVA (% of respective basal) MEAN (T1 h 30-T2 h): 112.1 % of respective basal; HVA (% of respective basal) MEAN (T1 h-T1 h 30): 139.45 % of respective basal; HVA (% of respective basal) MEAN (T2 h 30-T3 h): 111.13 % of respective basal; HVA (% of respective basal) MEAN (T2 h-T2 h 30): 107.76 % of respective basal; HVA (% of respective basal) MEAN (T3 h 30-T4 h): 113.38 % of respective basal; HVA (% of respective basal) MEAN (T3 h-T3 h 30): 106.61 % of respective basal; HVA (% of respective basal) MEAN (T4 h 30-T5 h): 102.76 % of respective basal; HVA (% of respective basal) MEAN (T4 h-T4 h 30): 127.17 % of respective basal; HVA (% of respective basal) MEAN (T5 h 30-T6 h): 109.97 % of respective basal; HVA (% of respective basal) MEAN (T5 h-T5 h 30): 112.73 % of respective basal; HVA (% of respective basal) MEAN (T6 h 30-T7 h): 113.53 % of respective basal; HVA (% of respective basal) MEAN (T6 h-T6 h 30): 108.85 % of respective basal; HVA (% of respective basal) MEAN (T-30 min-T0 (before administration)): 101.64 % of respective basal; HVA (% of respective basal) MEAN (T-1 h 30-T-1 h (before administration)): 97.88 % of respective basal; HVA (% of respective basal) MEAN (T-1 h-T-30 min (before administration)): 100.48 % of respective basal
